Earlier results as cited in patent US12102063B2 (SYNEXIS LLC, priority 2017, dated 2024).

What was measured:
Salmonella = settings: […] solution with vacuum and surfactant; cited from earlier work
[1] = test system: bacterial counts on eggshells; settings: 3% solution combined with ultraviolet light; cited from earlier work
Salmonella typhimurium = settings: eggs dipped twice in 6% H2O2 solution; cited from earlier work

OO [H2O2, hydrogen peroxide]
treated eggs that remained contaminated (Salmonella): 30%
reduction in bacterial counts (cfu/egg) [1]: ≤ 3 log
reduction of the number of Salmonella in eggshell membranes (Salmonella typhimurium): 95%
reduction of the numbers of positive eggs (Salmonella typhimurium): 55%
